From US6429191B1, “Treatment of hearing impairments” (Genentech, Inc., priority 1996, dated 2002)
Where two headings read alike, the source gives them in different places.

Assays:
[1] = tested on: SGNs in cochlear explants
Procedure: (§1) Cochlear explants were prepared from P3 rats, embedded and cultured in 3-D collagen gels. Ototoxins were added at various concentrations to 2-day cultures for 2 more days. After the preparations were processed for double histochemistry with N52 and phalloidin, they were examined under Zeiss Axiophot epifluorescent microscope. For each culture, SGN peripheral axons and hair cells were counted from 3-4 randomly selected fields in the middle turn of each culture. Data were collected from 6 or more cultures for each of the experimental groups. Two-tailed, unpaired t-test was used for statistical analysis. […] The error bars are SEM and double asterisks (**) indicate significant differences between experimental and control cultures (p<0.001).
(§2) An organotype cochlear explant culture that utilizes a 3-D collagen matrix cultures and maintains its normal, in vivo architecture. Cochleae were dissected from postnatal day 3 (P3) Wistar rats. After spiral ligament and stria vascularis tissues were removed, the remaining cochlear tissue containing the spiral ganglion and organ of Corti was cut into 3 pieces according to the basal, middle and apical turns. The explants were then embedded in a three-dimensional (“3-D”) collagen matrix of a droplet (20 μl) of freshly made collagen gel which was placed on the bottom of a 35 mm Nunc tissue culture dish, modified from what described previously (Gao et al., 1991) as follows. Rat tail collagen (type I, Collaborative Research) was mixed with 10× BME medium and 2% sodium carbonate in a ratio of 10:1:1 and placed on ice just before use. The collagen matrix containing the cochlear explants were incubated at 37° C. for 5-10 min until it gelled. The matrix was then cultured in defined serum-free medium using sufficient medium to cover the explants (2 ml of serum-free medium (BME plus serum-free supplement (Sigma 1-1884), 1% BSA, 2 mM glutamine, and 5 mg/ml glucose; containing no antibiotics). The culture medium was changed every other day thereafter.
(§3) While the neurofilament antibody (Texas red-mediated) labeled the somata and peripheral axons of SGNs, the phalloidin-FITC conjugate stained the stereocillia bundles of hair cells. Three cultures per experimental paradigm were studied in each individual experiment. Three or more separate repetitions of the experiment were conducted to validate the ototoxic effect.
(§4) As the density of the radial peripheral axons of SGNs appeared to be a reliable index of the number of surviving SGNs, the number of the peripheral axons of SGNs from a given length (100 μm) in the middle turn of the cochlea was counted for different experimental groups and plotted in FIG. 6A. Phalloidin-labeled hair cells were also counted in the same way (FIG. 6B).
(§5) Quantitative analysis of the numbers of peripheral axons of SGNs and hair cells in the cochlear explants were performed. The N52 and phalloidin double-labeled cochlear explants were examined under a Zeiss Axiophot epifluorescent microscope. As the density of radial peripheral axons of SGNs reflects the number of surviving SGNs, the number of these axons was counted using a grid ocular reticule covering a distance of 100 μm in the middle turns only. The surviving hair cells were counted in a similar manner. […] For each culture, SGN peripheral axons and hair cells were counted from 3-4 randomly selected fields in the middle turn of each culture.

[2] = tested on: hair cells in cochlear explants
Procedure: as §1, §2, §3, §4, §5

[3] = tested on: SGNs in cochlear explants; assay: Protective effects in cochlear explant cultures co-treated with ototoxins, SGN peripheral axon count; assay type: cell-based, rat; details: for protective effects on SGNs against ototoxins: growth factor added together with ototoxin, data not shown; for neuroprotection of SGNs against sodium salicylate and gentamicin: 20 ng/ml neurotrophin, sodium salicylate 5 mM or gentamicin 3 mM
Procedure: (§6) FIGS. 9A and 9B depict quantitation of protective effects of NT-4/5 on SGNs (FIG. 9A) and hair cells (FIG. 9B). […] The same experimental procedures were performed as in FIGS. 6A and 6B. The error bars are SEM and ** indicate that as compared to the cultures containing an ototoxin alone, p<0.001. “Con” indicates control culture.
FIG. 10 depicts quantitation of neuroprotection of different neurotrophins against sodium salicylate (Sal) and gentamicin (Gent). […] Sodium salicylate (5 mM) or gentamicin (3 mM) was added either alone or in combination with one of the neurotrophins (20 ng/ml) to 2-day cultures and the cultures were kept for 2 more days. The same experimental procedures were performed as in FIGS. 6A and 6B. […] The error bars are SEM and ** indicate that as compared to the cultures containing an ototoxin alone, p<0.001.
(§7) The protective effect of neurotrophins against ototoxicity was determined in the organotypic cultures of postnatal cochlear explants described in the Examples above. […] A human recombinant neurotrophin (Genentech, Inc.) or other growth factors, alone or in combination, was added to the culture at the same time the ototoxin was added.
(§8) Two days after treatment with ototoxins or co-treatment with ototoxins and neurotrophins (or other growth factors), the cochlear explant cultures were fixed in 4% paraformaldehyde in 0.1 M phosphate buffer (pH 7.4) for 30 min, washed in PBS, and subjected to double histochemical staining of the cochlear explant cultures. After incubation with the monoclonal antibody N52 against neurofilament protein (200 kd) in 1% Triton X100 containing 3% normal goat serum (“NGS”) for 2 days at 4° C., the explants were incubated with a Texas red-conjugated goat anti-mouse secondary antibody (1:70; Cappel) at room temperature for 40 min. The preparations were then stained with FITC-conjugated phalloidin (0.5 μg/ml; Sigma) for 45 min, washed in PBS and mounted in Fluoromount-G (Southern Biotechnology Associates, Birmingham, Ala.) which contains an anti-fading agent.

[4] = tested on: hair cells in cochlear explants; assay: Protective effects in cochlear explant cultures co-treated with ototoxins, hair cell count; assay type: cell-based, rat; details: growth factor added together with ototoxin; data not shown
Procedure: as §6, §7, §8

[5] = cited from earlier work
[6] = tested on: spiral ganglion neurons (SGNs); assay: Survival of dissociated spiral ganglion neurons in serum-free culture; assay type: cell-based, rat; details: for survival-promoting effect on SGNs: P5 rat SGNs, 2 days, serum-free medium, neurotrophins 0.1-50 ng/ml
Procedure: FIG. 1 is a histogram depicting the effects of NT-4/5 on SGN survival. SGNs were prepared from P5 rats, plated and kept for 2 days in serum-free medium in the absence or presence of NT-4/5 at different concentrations. Viable SGNs were identified by labeling with a neurofilament monoclonal antibody (N52), viewed under a Zeiss Axiophot microscope, and counted using a grid ocular reticule covering an area of […]. For each culture, about 10 randomly selected fields were counted. Data were collected from 3 to 5 cultures and normalized as a percentage of the number of viable neurons in the control cultures in each of the experiments. The error bars represent SEM.
FIG. 2 is a histogram depicting the effects of different neurotrophins on SGN survival. SGNs were prepared from P5 rats and maintained for 2 days in serum-free medium without or with different neurotrophins at different concentrations. Quantitation of viable SGNs was made in the same way as in FIG. 1 and the error bars are SEM. […] Difference between NT-3 and NT-4/5 or BDNF was very significant at all doses (P<0.001). No statistical difference was found between NT-4/5 and BDNF except the dose of 0.1 ng/ml (P<0.01).
Identical results (not shown) were also obtained with a different neuronal marker, a monoclonal antibody 3A10 (Furley et al., 1990). SGNs were dissociated from postnatal day 5 (P5) rat cochleae and plated in defined serum-free medium. […] The enzyme was inactivated with a mixture of 0.005% soybean trypsin inhibitor (Sigma) and 0.005% DNase (Worthington) before trituration with 0.05% DNase in Eagle's Basal Medium (“BME”). The dissociated cells were preplated on a 35 mm untreated tissue culture dish for 25 min to enrich the neuronal population. Under these experimental procedures, about 10% of the cell population were spiral ganglion neurons (“SGNs”) as determined by immunocytochemistry with a monoclonal antibody (N52; Boehringer) against neurofilaments (200 kd; Boehringer). […] Cells were plated at a density of 80,000/well. In control cultures about 75% of SGNs died after 2 days, presumably due to a lack of growth factors.

[7] = tested on: spiral ganglion neurons (SGNs); assay: Neurotrophin protection of dissociated SGNs against cisplatin neurotoxicity; assay type: cell-based, rat; details: for protective effects against cisplatin neurotoxicity / protection of SGNs compared with cultures containing cisplatin alone: 10 ng/ml neurotrophin; for protective effects against cisplatin neurotoxicity: cisplatin 1, 2 or 4 μg/ml; for protection of SGNs compared with cultures containing cisplatin alone: 4 μg/ml cisplatin
Text: Quantitation of viable SGNs was done in the same way as in FIG. 1. The error bars stand for SEM. […] While no difference was found between cultures containing NT-4/5 and cultures containing BDNF, the difference between cultures containing NT-3 and cultures containing NT-4/5 or BDNF was statistically very significant (P<0.001).

trkB receptor = trkB receptor (Homo sapiens, UniProt Q16620); details: naturally occurring NGF vs BDNF; cited from earlier work
trkB receptor, sequence (Q16620 32-822): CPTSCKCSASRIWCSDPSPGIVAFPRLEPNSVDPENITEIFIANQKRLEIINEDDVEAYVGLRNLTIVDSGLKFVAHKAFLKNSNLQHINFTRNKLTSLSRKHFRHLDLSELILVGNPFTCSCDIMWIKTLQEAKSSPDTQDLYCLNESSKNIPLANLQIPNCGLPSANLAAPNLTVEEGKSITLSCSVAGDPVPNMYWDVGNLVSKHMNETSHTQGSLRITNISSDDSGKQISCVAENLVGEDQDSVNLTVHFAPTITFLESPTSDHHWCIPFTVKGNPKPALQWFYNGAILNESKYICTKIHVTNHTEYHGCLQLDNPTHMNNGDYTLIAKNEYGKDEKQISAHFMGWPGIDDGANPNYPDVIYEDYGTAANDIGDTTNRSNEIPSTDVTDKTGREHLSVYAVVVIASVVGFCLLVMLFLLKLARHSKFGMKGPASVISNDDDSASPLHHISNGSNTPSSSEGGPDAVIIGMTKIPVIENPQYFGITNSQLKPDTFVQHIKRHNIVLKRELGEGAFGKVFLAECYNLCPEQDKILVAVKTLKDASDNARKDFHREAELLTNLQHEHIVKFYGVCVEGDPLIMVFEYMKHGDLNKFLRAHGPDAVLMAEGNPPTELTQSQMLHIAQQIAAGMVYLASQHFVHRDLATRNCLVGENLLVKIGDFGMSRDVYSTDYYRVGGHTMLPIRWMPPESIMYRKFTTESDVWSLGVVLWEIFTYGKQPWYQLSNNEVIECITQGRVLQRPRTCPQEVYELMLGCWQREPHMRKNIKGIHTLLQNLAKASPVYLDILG

trkC receptor = trkC receptor (Homo sapiens, UniProt Q16288); details: cited from earlier work
trkC receptor, sequence (Q16288 32-839): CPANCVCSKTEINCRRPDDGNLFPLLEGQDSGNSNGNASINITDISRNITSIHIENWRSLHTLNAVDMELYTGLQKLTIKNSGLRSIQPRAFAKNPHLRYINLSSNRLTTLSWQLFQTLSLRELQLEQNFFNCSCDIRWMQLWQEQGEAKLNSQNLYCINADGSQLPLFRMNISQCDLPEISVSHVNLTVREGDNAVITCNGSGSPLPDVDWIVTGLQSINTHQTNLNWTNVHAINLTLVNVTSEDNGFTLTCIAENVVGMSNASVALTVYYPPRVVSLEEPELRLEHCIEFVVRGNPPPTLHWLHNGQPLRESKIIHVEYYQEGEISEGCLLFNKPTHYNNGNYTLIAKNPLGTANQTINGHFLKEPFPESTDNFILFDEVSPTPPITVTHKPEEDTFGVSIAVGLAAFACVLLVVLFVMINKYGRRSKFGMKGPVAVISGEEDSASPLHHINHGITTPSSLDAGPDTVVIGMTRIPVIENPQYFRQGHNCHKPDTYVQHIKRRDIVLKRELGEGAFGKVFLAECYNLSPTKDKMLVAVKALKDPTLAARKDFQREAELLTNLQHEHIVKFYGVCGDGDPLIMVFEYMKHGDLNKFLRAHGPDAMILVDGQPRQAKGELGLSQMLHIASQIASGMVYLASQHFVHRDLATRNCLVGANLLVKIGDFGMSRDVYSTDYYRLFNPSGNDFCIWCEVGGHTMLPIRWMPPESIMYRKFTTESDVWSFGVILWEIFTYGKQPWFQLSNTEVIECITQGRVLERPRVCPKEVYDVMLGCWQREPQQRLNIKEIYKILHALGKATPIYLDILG

## gentamicin
[1]; 5 mM
  SGNs remaining intact: approximately 40%
[1]; 0.01 to 0.5 mM
  damage to SGNs: not significantly damaged
[1]; 1-5 mM
  damage to SGNs: started to induce SGN degeneration
[1]; figure legend FIG. 7A
  doses at which damage to SGNs starts: higher than 1 mM
[2]; 0.01 to 0.5 mM
  effect on hair cells: a substantial number of hair cells in the cochlea were killed
[2]; 1-5 mM
  effect on hair cells: eliminated virtually all hair cells

## platelet-derived growth factor [PDGF]
[3]
  protective effects on SGNs against ototoxins: did not show detectable protective effects
[4]
  protective effects on hair cells against ototoxins: did not show detectable protective effects

## [H]/N=C(/N)N[C@H]1[C@H](O)[C@@H](O)[C@H](O[C@@H]2O[C@@H](C)[C@](O)(C=O)[C@H]2O[C@@H]2O[C@@H](CO)[C@H](O)[C@@H](O)[C@@H]2NC)[C@@H](N/C(N)=N\[H])[C@@H]1O [streptomycin]
[5]; 1 gram per day for greater than 1 week
  patients developing measurable hearing loss: 4 to 15%
[5]; 1 gram per day
  incidence of vestibular impairment: 25%
[5]; 2 grams daily for 60 to 120 days
  patients displaying some vestibular impairment: ~75%

## nerve growth factor [NGF]
[6]
  survival-promoting effect on SGNs: no detectable effects
[7]
  protective effects against cisplatin neurotoxicity: did not show any protective effects
[3]
  neuroprotection of SGNs against sodium salicylate and gentamicin: did not show any detectable protection
trkB receptor
  KD at trkB relative to BDNF (fold lower): 500-1000 fold
trkC receptor; naturally occurring NGF vs NT-3
  KD at trkC relative to NT-3 (fold lower): 500-1000 fold

## transforming growth factor-β1 [TGF-β1]
[6]
  survival-promoting effect on SGNs: No survival-promoting effects
[3]
  protective effects on SGNs against ototoxins: did not show detectable protective effects
[4]
  protective effects on hair cells against ototoxins: did not show detectable protective effects

## R31A: NT-3 with mutation at position R31 to alanine
trkC receptor; compared with NT-3
  trkC binding of NT-3 mutant: increased trkC binding

## brain-derived neurotrophic factor [BDNF]
[6]
  survival-promoting effect on SGNs: very significant survival-promoting effects
[6]; concentrations from 1-50 ng/ml
  potency on SGN survival compared with other neurotrophins: equal in potency to NT-4/5
[7]
  protection of SGNs compared with cultures containing cisplatin alone: very significant protecting effects
  protective effects against cisplatin neurotoxicity: Equivalent protective effects
[3]
  neuroprotection of SGNs against sodium salicylate and gentamicin: protective effects on SGNs

## epidermal growth factor [EGF, growth factor (Collaborative Research)]
[6]
  survival-promoting effect on SGNs: No survival-promoting effects
[3]
  protective effects on SGNs against ototoxins: did not show detectable protective effects
[4]
  protective effects on hair cells against ototoxins: did not show detectable protective effects

## basic fibroblast growth factor [βFGF]
[6]
  survival-promoting effect on SGNs: No survival-promoting effects
[3]
  protective effects on SGNs against ototoxins: did not show detectable protective effects
[4]
  protective effects on hair cells against ototoxins: did not show detectable protective effects

## transforming growth factor-α [TGF-α]
[3]
  protective effects on SGNs against ototoxins: did not show detectable protective effects
[4]
  protective effects on hair cells against ototoxins: did not show detectable protective effects

## O=C([O-])c1ccccc1O.[Na+] [sodium salicylate]
[1]; 5 mM, added to 2-day cultures for 2 more days
  effect on SGNs and their peripheral axons: massive death of SGNs and degeneration of their peripheral axons
[1]; cochlear explant cultures
  dosage which starts to induce significant damage to SGNs: 3 mM
[1]; various concentrations
  SGN degeneration, dose dependence: dose dependent
[2]; 5 mM
  effect on hair cells: all hair cells remained intact
[2]; 10 mM
  hair cell loss: no significant hair cell loss

## insulin-like growth factor-1 [IGF-1]
[3]
  protective effects on SGNs against ototoxins: did not show detectable protective effects
[4]
  protective effects on hair cells against ototoxins: did not show detectable protective effects

## neurotrophin-3 [NT-3]
[6]
  survival-promoting effect on SGNs: significant survival-promoting effect
[6]; all doses (0.1-50 ng/ml)
  potency on SGN survival compared with other neurotrophins: less potent than NT-4/5 or BDNF
[7]; 10 ng/ml
  potency of protection against cisplatin compared with other neurotrophins: less potent compared to NT-4/5 or BDNF
[7]
  protection of SGNs compared with cultures containing cisplatin alone: very significant protecting effects
  protective effects against cisplatin neurotoxicity: significant protective effects
[3]
  neuroprotection of SGNs against sodium salicylate and gentamicin: protective effects on SGNs
